Measured values published in US7084239B1, “Cancer peptides of NY-ESO-1/CAG-3” (The United States of America as represented by the …, priority 1997, dated 2006).
“Also recorded” adds a separate entry of the source.

Key:
Format in all cases: cell-based, human
CTL clone 2 = assay: Chromium release cytolysis of peptide-pulsed target cells by CTL clone 2; conditions: peptide titration, 4-h chromium release, E:T ratio of 20:1 (FIG. 7B)
From the text: FIGS. 7A–7C. An alternative open reading frame of the NY-ESO-1 gene and antigenic peptides recognized by CTL. FIG. 7A. Identification of antigenic peptides from the ORF2. Thirty peptides were synthesized based on all potential ORFs and screened. Representative data are shown here. Seven peptides derived from ORF2 (see FIG. 3A) were pulsed on HLA-A31 positive 1510EBV B cells and tested for T cell recognition based on GM-CSF release ([…], SEQ ID NO: 123; […], SEQ ID NO: 124; […], SEQ ID NO: 125; […], SEQ ID NO: 46; […], SEQ ID NO: 47; […], SEQ ID NO: 126; and […], SEQ ID NO: 127). 1510 EBV alone was used as a negative control. FIG. 7B. 1510EBV B cells were labeled with chromium for 2 h. The ESORF2-10-18 peptide was then pulsed on the chromium-labeled […] (solid square) and HLA-A31-negative 1102EBV (open circle) at different concentrations. 1510EBV pulsed with ESO10-53, which was recognized by CTL clone 5, was used for the specificity control (solid triangle). After peptide incubation and three washes, cytolysis of target cells by CTL-clone 2 was determined in a 4-h chromium release assay at an E:T ratio of 20:1. FIG. 7C. Several tumor lines and fresh breast tumors were tested for recognition by CTL clone 2 to determine whether the ORF2 is translated in different tumors. 1510EBV B cells pulsed with […] (SEQ ID NO: 25) (ESO10-53), […] (SEQ ID NO: 47) (ORF2-10-18), or alone were included to evaluate the reactivity and specificity of CTL clone 2 and 5. […]
Cytolytic assay was done as previously described (Kawakami, Y et al., 1994, Proc. Natl. Acad. Sci. USA 91:6458–62). […] The cells were washed again, counted, and then mixed with TIL586 or CTL clone 5 at the indicated ratio of effector: targets (E:T). Chromium release was measured after 4 h incubation. […] Percentage of specific lysis was determined from the equation (A−B)/(C−B)×100 where A is lysis of 586EBV B cells by TIL586 or clone 5 in the presence of a peptide, B is spontaneous release from 586EBV B cells in presence of the same peptide but in the absence of effector cells, and C is the maximum chromium release. […]

CTL clone 5 = assay: GM-CSF release by CTL clone 5 on peptide-pulsed EBV B cells
Description: DNA transfection and GM-CSF assay were done as previously described (Wang, R. F., P. F. Robbins, Y. Kawakami, X. Q. Kang, and S. A. Rosenberg, 1995, J. Exp. Med. 181:799–804). Briefly, […] of DNA carrying a different fragment and 50 ng of the HLA-A31 DNA were mixed with 2 μl of lipofectamine in 100 μl of serum-free DMEM for 15–45 min. The DNA/lipofectamine mixture was then added to the COS-7 (5×10^4) cells and incubated overnight. The following day, cells were washed twice with DMEM medium. TIL586, CTL clone 5 or CTL clone 10 were added at a concentration of 5×10^4 cells/well in AIM-V medium containing 120 IU/ml of IL-2. After 18–24 h incubation, 100 μl of supernatant was collected and GM-CSF was measured in a standard ELISA assay (R+D Systems, Minneapolis, Minn.). For peptides, 586EBV, 1510EBV and T2 cells were incubated with peptides at 37° C. for 90 min, and then washed three times with AIM-V medium containing 120 IU/ml of IL-2. T cells were added and incubated for additional 18–24 h, 100 μl of supernatant was collected for GM-CSF assay. In some experiments, IFN-γ release assays were done using a standard ELISA kit (Endogen, Woburn, Mass.).
These peptides were pulsed onto HLA-A31-positive 1510EBV B cells and tested for their ability to stimulate cytokine release by CTL clone 5. […] CTL clone 10 recognized the same peptide as CTL clone 5 (data not shown). […] The reactivity of CTL clone 5 was undetectable when either the ESO9-54 or the ESO10-127 peptides were used at concentrations below 100 nM to sensitize EBV cells.

CTL clone 14 = assay: T cell recognition of peptide-pulsed EBV B cells by CTL clone 14; conditions: peptide pulsed onto EBV B cells
From the text: FIGS. 6A–6H. CTL clones 2 and 14 recognize the NY-ESO-1 gene, but not the ESO10-53 peptide derived from the NY-ESO-1 protein. CTL clones 2, 14 and 5 recognized NY-ESO-1 when cotransfected with HLA-A31 cDNA into COS-7 (FIG. 6A, C, E and G). TIL1244, which recognized TRP-2 But not NY-ESO-1, was used as a specificity control. FIGS. 6B, D, F and H. CTL clones 2, 5, 14, and TIL1244 recognized 586mel. […] TIL1244 recognized the TRP197-205 peptide derived from TRP-2, 586EBV B cells alone or pulsed with the ORF3P peptide from an alternative reading frame of TRP1 were negative controls. 397mel is an HLA-A31-negative, NY-ESO-1-positive tumor line.
DNA transfection and GM-CSF assay were done as previously described (Wang, R. F., P. F. Robbins, Y. Kawakami, X. Q. Kang, and S. A. Rosenberg, 1995, J. Exp. Med. 181:799–804). Briefly, […] of DNA carrying a different fragment and 50 ng of the HLA-A31 DNA were mixed with 2 μl of lipofectamine in 100 μl of serum-free DMEM for 15–45 min. The DNA/lipofectamine mixture was then added to the COS-7 (5×10^4) cells and incubated overnight. The following day, cells were washed twice with DMEM medium. […] After 18–24 h incubation, 100 μl of supernatant was collected and GM-CSF was measured in a standard ELISA assay (R+D Systems, Minneapolis, Minn.). […]

## ASGPGGGAPR (listed as Homo sapiens) [ESO10-53]
CTL clone 2
  Lysis of peptide-pulsed 1510EBV by CTL clone 2: failed to lyse
CTL clone 5; 586EBV cells, peptide 0.1 μg/ml for 90 min, 5 × 10^4 CTL clone 5
  GM-CSF release by CTL clone 5, EXPT. 2 (586EBV): 1044 (SEQ. ID NO: 25)
CTL clone 5; 1510EBV cells incubated with peptide at 0.1 μg/ml for 90 min
  CTL clone 5 GM-CSF release: >2000 (SEQ. ID NO: 25) pg/ml
CTL clone 5; 1510EBV cells, peptide 0.1 μg/ml for 90 min, 5 × 10^4 CTL clone 5
  GM-CSF release by CTL clone 5, EXPT. 1 (1510EBV): 1097
CTL clone 5; at 10 μM peptide concentration (FIG. 5A)
  Plateau of GM-CSF release from CTL clone 5 in peptide titration: no plateau was reached
CTL clone 5; peptide pulsed onto HLA-A31-positive 1510EBV or 586EBV B cells
  Recognition by CTL clone 5 (cytokine release), in words: strongly recognized; also recorded: recognized
CTL clone 5; peptide titration on EBV B cells, GM-CSF release
  Peptide concentration at which CTL clone 5 reactivity is detectable: ≤ 10 nM
CTL clone 14
  Recognition by CTL clone 14, in words: did not recognize
CTL clone 14; listed as ESO 10-53
  Recognition by CTL clone 14, in words: failed to recognize
